From patent EP4559911A1, “NOVEL HETEROCYCLIC COMPOUND AND PHARMACEUTICAL COMPOSITION FOR INHIBITING AUTOTAXIN COMPRISING THE SAME” (Nextgen Bioscience Co., Ltd., priority 2022, dated 2024)

Each compound was assayed against human Autotaxin protein (Homo sapiens, UniProt Q13822) (assay: Evaluation of the inhibitory activity against human Autotaxin protein (18:1 LysoPC substrate, choline assay kit, absorbance at 570 nm)). Conditions: compound at 500nM; 2 hours at 37 °C; % inhibition = (1 - absorbance test group / absorbance control group) X 100.
Format: biochemical
Method: Solutions of each compound synthesized (80 uM, 100% dimethyl sulfoxide) were sequentially diluted 5-fold with dimethyl sulfoxide to prepare 6 concentrations. Each concentration of the compound was diluted 2-fold with 1x test buffer (50 mM Tris-Cl (pH 8.0), 5 mM KCl, 1 mM CaCl2, 1 mM MgCl2, 140 mM NaCl, deionized water, 1 mg/mL BSA), and 1 uL (1.25% dimethyl sulfoxide) of this diluted mixture was dispensed into each well of a 96-well clear round-bottom plate. 9 uL of 1x test buffer was added, and 20 uL of 240 nM human autotaxin protein (buffer: 50 mM Tris-HCl, pH 8.0, with 150 mM sodium chloride and 20% glycerol) was added. 10 uL of sonicated 360 uM 18:1 LysoPC (diluted with 1x assay buffer) was added. The reaction was performed for 2 hours in a shaking incubator at 37 °C, and a secondary reaction mixture (choline assay kit, KA1662) (65 uL of 1x assay buffer: 1 uL of choline oxidase: 1 uL of dye probe) was prepared. 60 uL of the secondary reaction mixture was added to the plate where the reaction was performed, and incubated for 30 minutes in a shaker. The absorbance value was measured at a wavelength of 570 nm using a SpectraMax iD3 microplate reader. The percentage inhibition activity value (% inhibition) was calculated by the formula: (1 - absorbance value test group / absorbance value control group) X 100.
`c1ccc2c(c1)CC(Nc1ncc(-c3nnc(N4CCC(c5c[nH]nn5)C4)o3)cn1)C2` (stereo not drawn) [Example 1, 5-(5-(3-(1H-1,2,3-triazol-4-yl)pyrrolidin-1-yl)-1,3,4-oxadiazol-2-yl)-N-(2,3-dihydro-1H-inden-2-yl)pyrimidin-2-amine] showed an inhibition at 0.5 µM of 98%.
For `CC(C)(C)C(=O)OCn1cc(C2CCN(c3nnc(-c4cnc(NC5Cc6cc(F)c(F)cc6C5)nc4)o3)C2)nn1` (stereo not drawn) [Example 2, (4-(1-(5-(2-((5,6-difluoro-2,3-dihydro-1H-inden-2-yl)amino)pyrimidin-5-yl)-1,3,4-oxadiazol-2-yl)pyrrolidin-3-yl)-1H-1,2,3-triazol-1-yl)methyl pivalate], the inhibition at 0.5 µM was 3%.
Work on `Fc1cc2c(cc1F)CC(Nc1ncc(-c3nnc(N4CCC(c5c[nH]nn5)C4)o3)cn1)C2` (stereo not drawn) [Example 3, 5-(5-(3-(1H-1,2,3-triazol-4-yl)pyrrolidin-1-yl)-1,3,4-oxadiazol-2-yl)-N-(5,6-difluoro-2,3-dihydro-1H-inden-2-yl)pyrimidin-2-amine] yielded an inhibition at 0.5 µM of 100%.
`CC(C)(C)C(=O)OCn1cc(C2CCN(c3nnc(-c4cnc(NC5Cc6cccnc6C5)nc4)o3)C2)nn1` (stereo not drawn) [Example 4, (4-(1-(5-(2-((6,7-dihydro-5H-cyclopenta[b]pyridin-6-yl)amino)pyrimidin-5-yl)-1,3,4-oxadiazol-2-yl)pyrrolidin-3-yl)-1H-1,2,3-triazol-1-yl)methyl pivalate] was tested, and the inhibition at 0.5 µM was 1%.
Work on `CC(C)(C)C(=O)OCn1cc(C2CCN(c3nnc(-c4cnc(NCc5ccc6c(c5)OCO6)nc4)o3)C2)nn1` (stereo not drawn) [Example 5, (4-(1-(5-(2-((benzo[d][1,3]dioxol-5-ylmethyl)amino)pyrimidin-5-yl)-1,3,4-oxadiazol-2-yl)pyrrolidin-3-yl)-1H-1,2,3-triazol-1-yl)methyl pivalate] yielded an inhibition at 0.5 µM of 7.6%.
`c1cc2c(cc1CNc1ncc(-c3nnc(N4CCC(c5c[nH]nn5)C4)o3)cn1)OCO2` (stereo not drawn) [Example 6, 5-(5-(3-(1H-1,2,3-triazol-4-yl)pyrrolidin-1-yl)-1,3,4-oxadiazol-2-yl)-N-(benzo[d][1,3]dioxol-5-ylmethyl)pyrimidin-2-amine] gave an inhibition at 0.5 µM of 30.4%.
`c1cnc2c(n1)CC(Nc1ncc(-c3nnc(N4CCC(c5c[nH]nn5)C4)o3)cn1)C2` (stereo not drawn) [Example 7, N-(5-(5-(3-(1H-1,2,3-triazol-4-yl)pyrrolidin-1-yl)-1,3,4-oxadiazol-2-yl)pyrimidin-2-yl)-6,7-dihydro-5H-cyclopenta[b]pyrazin-6-amine] showed an inhibition at 0.5 µM of 17%.
`c1cnc2c(c1)CC(Nc1ncc(-c3nnc(N4CCC(c5c[nH]nn5)C4)o3)cn1)C2` (stereo not drawn) [Example 8, N-(5-(5-(3-(1H-1,2,3-triazol-4-yl)pyrrolidin-1-yl)-1,3,4-oxadiazol-2-yl)pyrimidin-2-yl)-6,7-dihydro-5H-cyclopenta[b]pyridin-6-amine] was tested, and the inhibition at 0.5 µM was 49.5%.
`O=C(/C=C/c1cnc(NC2Cc3cc(F)c(F)cc3C2)nc1)N1CCC(c2c[nH]nn2)C1` (stereo not drawn) [Example 9, (E)-1-(3-(1H-1,2,3-triazol-4-yl)pyrrolidin-1-yl)-3-(2-((5,6-difluoro-2,3-dihydro-1H-inden-2-yl)amino)pyrimidin-5-yl)prop-2-en-1-one] was tested, and the inhibition at 0.5 µM was 94.2%.
For `O=C(CCc1cnc(NC2Cc3cc(F)c(F)cc3C2)nc1)N1CCC(c2c[nH]nn2)C1` (stereo not drawn) [Example 10, 1-(3-(1H-1,2,3-triazol-4-yl)pyrrolidin-1-yl)-3-(2-((5,6-difluoro-2,3-dihydro-1H-inden-2-yl)amino)pyrimidin-5-yl)propan-1-one], the inhibition at 0.5 µM was 18.6%.
For `Clc1cc(Cl)cc(CCNc2ncc(-c3nnc(N4CCC(c5c[nH]nn5)C4)o3)cn2)c1` (stereo not drawn) [Example 11, 5-(5-(3-(1H-1,2,3-triazol-4-yl)pyrrolidin-1-yl)-1,3,4-oxadiazol-2-yl)-N-(3,5-dichlorophenethyl)pyrimidin-2-amine], the inhibition at 0.5 µM was 41.6%.
`COc1ccc2c(c1)CC(Nc1ncc(-c3nnc(N4CCC(c5cn(COC(=O)C(C)(C)C)nn5)C4)o3)cn1)C2` (stereo not drawn) [Example 12, (4-(1-(5-(2-((5-methoxy-2,3-dihydro-1H-inden-2-yl)amino)pyrimidin-5-yl)-1,3,4-oxadiazol-2-yl)pyrrolidin-3-yl)-1H-1,2,3-triazol-1-yl)methyl pivalate] gave an inhibition at 0.5 µM of 4.1%.
`COc1ccc2c(c1)CC(Nc1ncc(-c3nnc(N4CCC(c5c[nH]nn5)C4)o3)cn1)C2` (stereo not drawn) [Example 13, 5-(5-(3-(1H-1,2,3-triazol-4-yl)pyrrolidin-1-yl)-1,3,4-oxadiazol-2-yl)-N-(5-methoxy-2,3-dihydro-1H-inden-2-yl)pyrimidin-2-amine] showed an inhibition at 0.5 µM of 96.8%.
Work on `Fc1cc2c(cc1F)CC(Nc1cnc(-c3nnc(N4CCC(c5c[nH]nn5)C4)o3)cn1)C2` (stereo not drawn) [Example 14, 5-(5-(3-(1H-1,2,3-triazol-4-yl)pyrrolidin-1-yl)-1,3,4-oxadiazol-2-yl)-N-(5,6-difluoro-2,3-dihydro-1H-inden-2-yl)pyrazin-2-amine] yielded an inhibition at 0.5 µM of 23.3%.
For `COC(=O)C1CCN(c2nnc(-c3cnc(NC4Cc5cc(F)c(F)cc5C4)nc3)o2)C1` (stereo not drawn) [Example 15, methyl 1-(5-(2-((5,6-difluoro-2,3-dihydro-1H-inden-2-yl)amino)pyrimidin-5-yl)-1,3,4-oxadiazol-2-yl)pyrrolidine-3-carboxylate], the inhibition at 0.5 µM was 9.5%.
`Cc1nc(NC2Cc3cc(F)c(F)cc3C2)ncc1-c1nnc(N2CCC(c3c[nH]nn3)C2)o1` (stereo not drawn) [Example 16, 5-(5-(3-(1H-1,2,3-triazol-4-yl)pyrrolidin-1-yl)-1,3,4-oxadiazol-2-yl)-N-(5,6-difluoro-2,3-dihydro-1H-inden-2-yl)-4-methylpyrimidin-2-amine] gave an inhibition at 0.5 µM of 88.1%.
Compound `Fc1cc2c(cc1F)CC(Nc1ncc(C3CC(N4CCC(c5c[nH]nn5)C4)=NO3)cn1)C2` (stereo not drawn) [Example 17, 5-(3-(3-(1H-1,2,3-triazol-4-yl)pyrrolidin-1-yl)-4,5-dihydroisoxazol-5-yl)-N-(5,6-difluoro-2,3-dihydro-1H-inden-2-yl)pyrimidin-2-amine] has an inhibition at 0.5 µM of 39.5%.
For `Fc1cc2c(cc1F)CC(Nc1ncc(-c3cc(N4CCC(c5c[nH]nn5)C4)no3)cn1)C2` (stereo not drawn) [Example 18, 5-(3-(3-(1H-1,2,3-triazol-4-yl)pyrrolidin-1-yl)isoxazol-5-yl)-N-(5,6-difluoro-2,3-dihydro-1H-inden-2-yl)pyrimidin-2-amine], the inhibition at 0.5 µM was 95.3%.
Work on `Brc1ccc2c(c1)CC(Nc1ncc(-c3nnc(N4CCC(c5c[nH]nn5)C4)o3)cn1)C2` (stereo not drawn) [Example 19, 5-(5-(3-(1H-1,2,3-triazol-4-yl)pyrrolidin-1-yl)-1,3,4-oxadiazol-2-yl)-N-(5-bromo-2,3-dihydro-1H-inden-2-yl)pyrimidin-2-amine] yielded an inhibition at 0.5 µM of 99.7%.
`O=C(/C=C/c1cnc(NC2Cc3ccccc3C2)nc1)N1CCC(c2c[nH]nn2)C1` (stereo not drawn) [Example 20, (E)-1-(3-(1H-1,2,3-triazol-4-yl)pyrrolidin-1-yl)-3-(2-((2,3-dihydro-1H-inden-2-yl)amino)pyrimidin-5-yl)prop-2-en-1-one] was tested, and the inhibition at 0.5 µM was 92.4%.
In the case of `Fc1cc(F)cc(CNc2ncc(-c3nnc(N4CCC(c5c[nH]nn5)C4)o3)cn2)c1` (stereo not drawn) [Example 21, 5-(5-(3-(1H-1,2,3-triazol-4-yl)pyrrolidin-1-yl)-1,3,4-oxadiazol-2-yl)-N-(3,5-difluorobenzyl)pyrimidin-2-amine], the inhibition at 0.5 µM is reported as 72.5%.
In the case of `O=C(O)C1CCN(c2nnc(-c3cnc(NC4Cc5cc(F)c(F)cc5C4)nc3)o2)C1` (stereo not drawn) [Example 22, 1-(5-(2-((5,6-difluoro-2,3-dihydro-1H-inden-2-yl)amino)pyrimidin-5-yl)-1,3,4-oxadiazol-2-yl)pyrrolidine-3-carboxylic acid], the inhibition at 0.5 µM is reported as 3.6%.
`O=c1[nH]nc(C2CCN(c3nnc(-c4cnc(NC5Cc6cc(F)c(F)cc6C5)nc4)o3)C2)o1` (stereo not drawn) [Example 23, 5-(1-(5-(2-((5,6-difluoro-2,3-dihydro-1H-inden-2-yl)amino)pyrimidin-5-yl)-1,3,4-oxadiazol-2-yl)pyrrolidin-3-yl)-1,3,4-oxadiazol-2(3H)-one] was tested, and the inhibition at 0.5 µM was 91.6%.
In the case of `COC(=O)CC1CCN(c2nnc(-c3cnc(NC4Cc5cc(F)c(F)cc5C4)nc3)o2)C1` (stereo not drawn) [Example 24, methyl 2-(1-(5-(2-((5,6-difluoro-2,3-dihydro-1H-inden-2-yl)amino)pyrimidin-5-yl)-1,3,4-oxadiazol-2-yl)pyrrolidin-3-yl)acetate], the inhibition at 0.5 µM is reported as 1%.
In the case of `O=C(O)CC1CCN(c2nnc(-c3cnc(NC4Cc5cc(F)c(F)cc5C4)nc3)o2)C1` (stereo not drawn) [Example 25, 2-(1-(5-(2-((5,6-difluoro-2,3-dihydro-1H-inden-2-yl)amino)pyrimidin-5-yl)-1,3,4-oxadiazol-2-yl)pyrrolidin-3-yl)acetic acid], the inhibition at 0.5 µM is reported as 1.8%.
`OC1CCN(c2nnc(-c3cnc(NC4Cc5cc(F)c(F)cc5C4)nc3)o2)C1` (stereo not drawn) [Example 26, 1-(5-(2-((5,6-difluoro-2,3-dihydro-1H-inden-2-yl)amino)pyrimidin-5-yl)-1,3,4-oxadiazol-2-yl)pyrrolidin-3-ol] gave an inhibition at 0.5 µM of 1%.
`CS(=O)(=O)OC1CCN(c2nnc(-c3cnc(NC4Cc5cc(F)c(F)cc5C4)nc3)o2)C1` (stereo not drawn) [Example 27, 1-(5-(2-((5,6-difluoro-2,3-dihydro-1H-inden-2-yl)amino)pyrimidin-5-yl)-1,3,4-oxadiazol-2-yl)pyrrolidin-3-yl methanesulfonate] showed an inhibition at 0.5 µM of 12.1%.
